The source of these data is US20250368678A1, “19-NOR-C3,3-DISUBSTITUTED C21-AZACYCLO-S[…] AND METHOD FOR USING SAME” (SHANDONG LUYE PHARMACEUTICAL CO., LTD., priority 2022, published 2025).

T1 sequence (P14867 28-456): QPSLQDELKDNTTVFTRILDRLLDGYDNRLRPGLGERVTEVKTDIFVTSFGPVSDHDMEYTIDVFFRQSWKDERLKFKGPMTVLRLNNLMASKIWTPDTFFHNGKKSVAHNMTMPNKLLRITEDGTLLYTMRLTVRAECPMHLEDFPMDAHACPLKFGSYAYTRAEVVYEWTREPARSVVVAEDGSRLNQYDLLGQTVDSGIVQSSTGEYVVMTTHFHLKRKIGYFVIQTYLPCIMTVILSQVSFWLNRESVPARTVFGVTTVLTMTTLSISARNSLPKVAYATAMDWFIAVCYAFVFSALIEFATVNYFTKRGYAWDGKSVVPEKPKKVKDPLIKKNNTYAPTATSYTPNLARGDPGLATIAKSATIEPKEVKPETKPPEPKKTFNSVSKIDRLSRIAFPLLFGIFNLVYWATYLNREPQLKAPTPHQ
T1 sequence (P47870 25-512 limits assumed): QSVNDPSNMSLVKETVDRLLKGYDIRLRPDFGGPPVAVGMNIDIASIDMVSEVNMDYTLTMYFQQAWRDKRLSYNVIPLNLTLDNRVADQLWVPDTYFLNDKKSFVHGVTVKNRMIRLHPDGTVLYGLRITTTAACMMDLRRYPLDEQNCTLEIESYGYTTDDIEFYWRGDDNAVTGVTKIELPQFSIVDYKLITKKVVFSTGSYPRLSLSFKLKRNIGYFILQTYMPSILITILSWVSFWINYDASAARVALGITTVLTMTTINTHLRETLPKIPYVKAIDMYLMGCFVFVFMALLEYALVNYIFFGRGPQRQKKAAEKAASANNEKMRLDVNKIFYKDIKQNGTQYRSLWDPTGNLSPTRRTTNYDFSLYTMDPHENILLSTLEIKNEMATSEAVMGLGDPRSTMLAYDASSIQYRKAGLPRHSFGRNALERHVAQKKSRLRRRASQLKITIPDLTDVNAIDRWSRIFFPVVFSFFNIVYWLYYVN
T1 sequence (P18507 40-475 partner): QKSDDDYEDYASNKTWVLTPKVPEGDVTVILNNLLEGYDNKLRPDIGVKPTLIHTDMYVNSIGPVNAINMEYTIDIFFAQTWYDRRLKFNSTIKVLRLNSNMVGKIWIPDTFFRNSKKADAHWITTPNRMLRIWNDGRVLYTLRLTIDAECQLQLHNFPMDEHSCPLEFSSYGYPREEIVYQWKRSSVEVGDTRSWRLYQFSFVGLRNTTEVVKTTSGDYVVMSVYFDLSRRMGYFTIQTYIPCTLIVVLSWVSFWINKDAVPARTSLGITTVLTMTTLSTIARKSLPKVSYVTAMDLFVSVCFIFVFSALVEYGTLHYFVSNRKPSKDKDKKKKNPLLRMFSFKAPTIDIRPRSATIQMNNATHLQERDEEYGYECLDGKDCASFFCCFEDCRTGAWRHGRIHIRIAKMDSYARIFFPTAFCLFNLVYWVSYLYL
T2 sequence (P48169 36-554): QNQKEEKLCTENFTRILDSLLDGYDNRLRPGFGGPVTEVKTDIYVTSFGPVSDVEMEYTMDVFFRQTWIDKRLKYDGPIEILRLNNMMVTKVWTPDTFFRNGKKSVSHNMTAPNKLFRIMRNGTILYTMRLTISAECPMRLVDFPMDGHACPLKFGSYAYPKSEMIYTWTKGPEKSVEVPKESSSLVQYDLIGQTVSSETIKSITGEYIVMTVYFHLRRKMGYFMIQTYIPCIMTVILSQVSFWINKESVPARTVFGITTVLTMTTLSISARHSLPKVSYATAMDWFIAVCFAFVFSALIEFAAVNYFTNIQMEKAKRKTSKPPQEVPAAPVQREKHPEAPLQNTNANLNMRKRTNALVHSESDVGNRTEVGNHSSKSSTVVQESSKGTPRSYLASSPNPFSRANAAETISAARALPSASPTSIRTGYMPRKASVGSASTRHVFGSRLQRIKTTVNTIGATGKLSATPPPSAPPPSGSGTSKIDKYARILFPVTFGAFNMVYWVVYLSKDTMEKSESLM
T2 sequence (P28472 26-473): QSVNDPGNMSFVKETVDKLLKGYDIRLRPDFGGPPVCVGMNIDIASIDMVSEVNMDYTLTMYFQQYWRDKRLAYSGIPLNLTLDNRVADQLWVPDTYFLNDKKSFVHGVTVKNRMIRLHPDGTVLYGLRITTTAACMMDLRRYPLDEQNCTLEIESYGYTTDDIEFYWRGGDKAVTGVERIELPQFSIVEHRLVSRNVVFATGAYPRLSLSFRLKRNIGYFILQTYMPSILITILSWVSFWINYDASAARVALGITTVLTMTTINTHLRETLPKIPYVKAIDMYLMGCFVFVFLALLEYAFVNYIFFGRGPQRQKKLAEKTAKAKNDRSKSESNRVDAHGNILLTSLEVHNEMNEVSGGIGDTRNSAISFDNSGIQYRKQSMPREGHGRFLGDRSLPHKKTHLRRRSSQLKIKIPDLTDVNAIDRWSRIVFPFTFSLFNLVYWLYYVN
T2 sequence (O14764 25-452 partner): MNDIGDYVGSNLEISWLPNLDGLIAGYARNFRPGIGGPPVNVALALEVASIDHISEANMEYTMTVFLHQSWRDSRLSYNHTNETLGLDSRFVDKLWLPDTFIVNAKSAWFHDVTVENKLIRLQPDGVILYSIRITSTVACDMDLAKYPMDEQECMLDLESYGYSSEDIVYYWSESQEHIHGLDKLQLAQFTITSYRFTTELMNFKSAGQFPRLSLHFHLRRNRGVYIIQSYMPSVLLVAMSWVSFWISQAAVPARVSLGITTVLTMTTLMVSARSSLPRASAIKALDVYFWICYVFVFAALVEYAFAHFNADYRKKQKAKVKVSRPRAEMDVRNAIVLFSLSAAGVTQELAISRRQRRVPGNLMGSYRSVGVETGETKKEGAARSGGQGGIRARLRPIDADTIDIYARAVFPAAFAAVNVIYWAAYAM

One series addresses T1, α1β2γ2 GABA receptors (α1β2γ2-CHO-TRex stable cell strain) (Homo sapiens, UniProt P14867+P47870).
T1 construct: expressed in transfected cells
Kind of series: Whole-cell patch clamp, intrasynaptic functional activity (positive allosteric regulation of GABA-induced current). It is filed as cell-based. The following applies: patch clamp -60 mV, GABA at EC10-20, α1β2γ2-CHO-TRex cells. The procedure:
(§1) The α4β3δ-HEK-FlpIn-TRex stable cell strain was cultured in DMEM+10% FBS complete culture medium, with the selective antibiotics being 10 μg/mL Blasticidin, 100 µg/mL Zeocin, 100 µg/mL Hygromycin, and 0.2 μg/mL Puromycin. The α1β2γ2-CHO-TRex stable cell strain was cultured in DMEM/F12+10% FBS complete culture medium, with the selective antibiotics being 10 μg/mL Blasticidin, 100 μg/mL Zeocin, 300 μg/mL Hygromycin, and […] Puromycin.
(§2) The day before the patch clamp experiment, cells were seeded onto 12 mm polylysine-coated coverslips and then cultured in 35 mm culture dishes, and tetracycline ([…]) was added to induce the expression of GABA receptors. The extracellular fluid had the following composition (in mM): 140 NaCl, 3 KCl, 1.5 MgCl2, 2 CaCl2, 10 HEPES, and 10 Glucose. After thorough mixing, NaOH was added to adjust the pH to 7.4, and sucrose was added to adjust the osmotic pressure to 300-320 mOsm. The fluid was stored at 4° C. The electrode internal solution had the following composition (in mM): 145 KCl, 1 MgCl2, 5 EGTA, 10 HEPES, and 5 MgATP. After thorough mixing, KOH was added to adjust the pH to 7.3, and sucrose was added to adjust the osmotic pressure to 290-300 mOsm. The solution was filtered through a […] before use.
(§3) Whole-cell patch clamp recording was mainly employed in this experiment. The membrane potential was clamped at −60 mV, and receptors were activated using GABA at an EC10-20 concentration ([…]). The test compounds were dissolved in 0.1% DMSO, and perfusion was performed for 30 s prior to GABA stimulation. Finally, the positive allosteric regulating effects of the test compounds on α1β2γ2 or α4β3δ were determined.
(§4) The experimental result for each concentration was expressed as a fold increase in the GABA-induced current caused by the compound. […] At least 5 concentrations are tested to obtain a complete EC50 curve and EC50 values. All experiments were repeated on no less than 3 cells, and data processing was completed using GraphPad prism software. The dose-response curves were fitted using the Hill equation, and the half-maximal activating concentration EC50 and Emax were finally obtained.
(In general: In patch-clamp work, channel activity is measured electrically.)
One may read the EC50 as the midpoint of the concentration-response curve. A low value points to a more potent agent. Usually Emax stands for the size of the effect at its maximum, as opposed to the concentration needed. Compound `C[C@@]1(O)CC[C@H]2[C@H](CC[C@@H]3[C@@H]2CC[C@]2(C)[C@@H](C(=O)Cn4cnn(-c5cccc(F)n5)c4=O)CC[C@@H]32)C1` [Compound 20] yielded a concentration giving a half-maximal response (EC50) of 368 nM and a maximal effect (Emax) of 724%.
In the case of `C[C@@]1(O)CC[C@H]2[C@H](CC[C@@H]3[C@@H]2CC[C@]2(C)[C@@H](C(=O)Cn4cnn(-c5ccnc(F)c5)c4=O)CC[C@@H]32)C1` [Compound 21], the concentration giving a half-maximal response (EC50) was 153 nM.

The next series has as its target T2, α4β3δ GABA receptors (α4β3δ-HEK-FlpIn-TRex stable cell strain) (Homo sapiens, UniProt P28472+P48169).
T2 construct: expressed in transfected cells
Nature of the series: Whole-cell patch clamp, extrasynaptic functional activity (positive allosteric regulation of GABA-induced current). The conditions noted are these: patch clamp -60 mV, GABA at EC10-20, α4β3δ-HEK-FlpIn-TRex cells. It is filed as cell-based. Here is the method: as §1, §2, §3, §4
With `C[C@@]1(O)CC[C@H]2[C@H](CC[C@@H]3[C@@H]2CC[C@]2(C)[C@@H](C(=O)Cn4cnn(-c5cccc(F)n5)c4=O)CC[C@@H]32)C1` [Compound 20], the concentration for a half-maximal effect (EC50) turned out to be 360 nM and the maximal response (Emax) is 966%.
Turning to `C[C@@]1(O)CC[C@H]2[C@H](CC[C@@H]3[C@@H]2CC[C@]2(C)[C@@H](C(=O)Cn4cnn(-c5ccnc(F)c5)c4=O)CC[C@@H]32)C1` [Compound 21], the EC50 is 116 nM.

Tested on in the next series: not listed separately
Nature of the series: In vitro liver microsomal stability assay, human. Type of series: in vitro ADME. The following applies: Human liver microsomes. The procedure: (§5) 1) Preparation of working solutions of test samples: The test samples were diluted with acetonitrile to 100 M.
(§6) 2) Preparation of a working solution of liver microsomes: liver microsomes were diluted with 100 mM phosphate-buffered saline to 0.56 mg/mL.
(§7) 3) Preparation of a working solution of reduced nicotinamide adenine dinucleotide (NADPH): A proper amount of NADPH was weighed out and diluted with phosphate-buffered saline to 20 mM, and an equal volume of a 60 mM MgCl2 solution was added.
(§8) 4) Preparation of a stop solution: Tolbutamide was diluted with acetonitrile to 20 ng/mL, serving as a stop solution containing an internal standard.
(§9) 1) Incubation anti-adsorption EP tubes were prepared and labeled with species, test/control sample, time points (0, 5, 10, 20, 30, 60 min, Blank60, and NCF60), etc.
(§10) 2) 2 L of test or control sample working solution, diluted with acetonitrile to 100 M, and 178 L of liver microsome working solution were added to each tube. For the Blank60 tube, 2 L of acetonitrile was added instead of a test sample. The tubes were pre-incubated in a 37° C. water bath for about 10 min, with each sample tested in triplicate.
(§11) 3) After the pre-incubation was complete, 20 L of NADPH working solution was added to each tube except for the 0 min and NCF60 tubes to start reactions, and 20 L of phosphate-buffered saline (containing 30 mM MgCl2) was added to the NCF60 tube. In the incubation system, the final concentrations of the test and control samples were 1 M, the final concentration of liver microsomes was 0.5 mg/mL, the final concentration of NADPH was 1 mM, and the final concentration of MgCl2 was 3 mM.
(§12) 4) For the 0 min sample, 600 L of stop solution was added before adding the NADPH working solution. After each sample was incubated for its respective time, 600 L of stop solution was added to stop the reaction.
(§13) 5) After the reaction was stopped, each sample was vortexed for 30 s and then centrifuged at 13,500 rpm for 10 min. 100 L of the supernatant was transferred to an EP tube, and 100 L Milli-Q water was added. The mixture was well mixed by vortexing and analyzed by LC-MS/MS.
(§14) 6) Testosterone and dextromethorphan were used as positive control samples under the same conditions to assess the stability and reliability of the system.
(§15) Parameters of the test samples, including their half-lives, intrinsic clearance rates in liver microsomes, and hepatic intrinsic clearance rates, were calculated based on the percentage of test sample remaining.
In general terms: Liver microsomes are vesicles of endoplasmic reticulum, rich in cytochrome P450 enzymes.
Usually CLint scaled stands for the rate of metabolic loss divided by the concentration. A higher CLint scaled goes with rapid turnover. For orientation: half-life means how long it takes for the measured level to halve. Lower therefore signals rapid decline. Compound `C[C@@]1(O)CC[C@H]2[C@H](CC[C@@H]3[C@@H]2CC[C@]2(C)[C@@H](C(=O)Cn4cnn(-c5cccc(F)n5)c4=O)CC[C@@H]32)C1` [Compound 20] yielded a CLint scaled at 1 µM of 28 mL/min/kg and a half-life at 1 µM of 70.7 min.
Turning to `C[C@@]1(O)CC[C@H]2[C@H](CC[C@@H]3[C@@H]2CC[C@]2(C)[C@@H](C(=O)Cn4cnn(-c5ccnc(F)c5)c4=O)CC[C@@H]32)C1` [Compound 21], the CLint scaled at 1 µM turned out to be 23 mL/min/kg and the half-life at 1 µM was determined as 53.3 min.

Still in this series, the particulars now being: Human liver microsomes 0.5 mg/mL, NADPH.
Take `C[C@@]1(O)CC[C@H]2[C@H](CC[C@@H]3[C@@H]2CC[C@]2(C)[C@@H](C(=O)Cn4cnn(-c5cccc(F)n5)c4=O)CC[C@@H]32)C1` [Compound 20]: the “Remaining amount % at 60 min” value was 52.3%.
On to `C[C@@]1(O)CC[C@H]2[C@H](CC[C@@H]3[C@@H]2CC[C@]2(C)[C@@H](C(=O)Cn4cnn(-c5ccnc(F)c5)c4=O)CC[C@@H]32)C1` [Compound 21], for which the “Remaining amount % at 60 min” value was found to be 47.9%.

Still in this series, the particulars now being: Human liver microsomes; read-out: CLint(mic).
Consider `C[C@@]1(O)CC[C@H]2[C@H](CC[C@@H]3[C@@H]2CC[C@]2(C)[C@@H](C(=O)Cn4cnn(-c5cccc(F)n5)c4=O)CC[C@@H]32)C1` [Compound 20], for which the microsomal CLint at 1 µM turned out to be 20 µL/min/mg.
Same read-out and setting: as for `C[C@@]1(O)CC[C@H]2[C@H](CC[C@@H]3[C@@H]2CC[C@]2(C)[C@@H](C(=O)Cn4cnn(-c5ccnc(F)c5)c4=O)CC[C@@H]32)C1` [Compound 21], the figure is 26 µL/min/mg.

Tested on in a further series: not listed separately
Kind of series: In vitro liver microsomal stability assay, rat. Type of series: in vitro ADME. The conditions noted are these: Rat liver microsomes. The procedure:
as §5, §6, §7, §8, §9, §10, §11, §12, §13, §14, §15
The compound `C[C@@]1(O)CC[C@H]2[C@H](CC[C@@H]3[C@@H]2CC[C@]2(C)[C@@H](C(=O)Cn4cnn(-c5cccc(F)n5)c4=O)CC[C@@H]32)C1` [Compound 20] returned an intrinsic metabolic clearance (CLint scaled) at 1 µM of 320 mL/min/kg and a half-life at 1 µM of 7.8 min.
The like results for `C[C@@]1(O)CC[C@H]2[C@H](CC[C@@H]3[C@@H]2CC[C@]2(C)[C@@H](C(=O)Cn4cnn(-c5ccnc(F)c5)c4=O)CC[C@@H]32)C1` [Compound 21] were, in that order, 69 mL/min/kg and 36.3 min.

The series is the same for the next values; noted with them: Rat liver microsomes 0.5 mg/mL, NADPH.
Take `C[C@@]1(O)CC[C@H]2[C@H](CC[C@@H]3[C@@H]2CC[C@]2(C)[C@@H](C(=O)Cn4cnn(-c5cccc(F)n5)c4=O)CC[C@@H]32)C1` [Compound 20]: the “Remaining amount % at 60 min” value is given as 8.40%.
The same measure, in the same setting: to `C[C@@]1(O)CC[C@H]2[C@H](CC[C@@H]3[C@@H]2CC[C@]2(C)[C@@H](C(=O)Cn4cnn(-c5ccnc(F)c5)c4=O)CC[C@@H]32)C1` [Compound 21] belongs 31.9%.

The series is the same for the next values; noted with them: Rat liver microsomes; read-out: CLint(mic).
Regarding `C[C@@]1(O)CC[C@H]2[C@H](CC[C@@H]3[C@@H]2CC[C@]2(C)[C@@H](C(=O)Cn4cnn(-c5cccc(F)n5)c4=O)CC[C@@H]32)C1` [Compound 20], the microsomal CLint at 1 µM worked out at 178 µL/min/mg.
Turning to `C[C@@]1(O)CC[C@H]2[C@H](CC[C@@H]3[C@@H]2CC[C@]2(C)[C@@H](C(=O)Cn4cnn(-c5ccnc(F)c5)c4=O)CC[C@@H]32)C1` [Compound 21], the microsomal CLint at 1 µM came to 38 µL/min/mg.
